Patent publication US4983633A, “Amide compounds, process for preparing the same, and composition for activating gastric motor function containing the same” (Hokuriku Pharmaceutical Co., Ltd., priority 1987, dated 1991)
pEC50: −log10 of the molar value. Where “and” joins values, the source holds several entries; their conditions need not be identical. Identical values can stand only once. Counter-ions that a name gives are not always drawn.

Assays:
[1] = test system: isolated guinea pig ileum; experiment: Contractile effects of the test compounds in isolated guinea pig ileum; set-up: species or system guinea pig (male Hartley); conditions: for pEC50: Cavia porcellus, isolated ileum strips, 37° C, relative to 10^-6 M acetylcholine-induced contraction, read-out: ED50 (dose which evoked 50% of the acetylcholine-induced contraction)
Description: Contractile effects of the test compounds in isolated guinea pig ileum
Male Hartley guinea-pigs weighing about 450 g were sacrificed and the ileum was excised. Then intact strips 1.5-2.0 cm long were prepared. These preparations were suspended vertically in an organ bath filled with Krebs-Henseleit's solution at 37° C. which was gassed with 95% O2 and 5% CO2. Rhythmic contractions of the preparations were isotonically measured. Effects of the test compounds were assessed as the relative percentage of a test compound against 10^-6 M acetylcholine-induced contractions. Results were as follows (Table 1).
*The dose which evoked 50% of the acetylcholineinduced contraction.

[2] = Acute toxicological study in mice (up and down method); conditions: mouse, in vivo; intravenous, male ICR mice aged 5 weeks
Description: Acute toxicological study in mice
Male ICR mice aged 5 weeks were used for each determination. The test compounds (2-4 different doses) were intravenously administered and LD50 values were calculated using the up and down method. Results were as follows (Table 3).

[3] = test system: dopamine-induced suppression of gastrointestinal transit; experiment: Improving effects on dopamine-induced suppression of gastrointestinal transit in mice (charcoal meal); format: in vivo, mice (male ddY); conditions: for improvement of gastrointestinal transit inhibited by dopamine (in words): 30 mg/kg p.o.; for Improvement (%) / Gastrointestinal transit (% ± S.E.): test compound 30 mg/kg p.o. + dopamine 2 mg/kg i.p.; for Gastrointestinal transit (% ± S.E.): 20 min after charcoal meal
Description: Improving effects of the test compound on dopamine-induced suppression of gastrointestinal transit in mice
Male mice of the ddY strain weighing about 22 g were fasted overnight and the test compounds (suspended in 0.5% carboxymethylcellulose) were administered orally. Thirty minutes later dopamine (2 mg/kg dissolved in saline) or saline only was administered intraperitoneally followed immediately by the oral administration of charcoal meal (5% charcoal powder suspended in 10% gum arabic). Twenty minutes later the animals were sacrificed and the digestive tracts were isolated from the stomach to the cecum. The gastrointestinal transit was determined by calculating the total intestinal length between the pylorus and the cecum and the length over which charcoal meal was carried from the pylorus. Statistical analysis was carried out by Student's t-test for unpaired observations.

[4] = test system: apomorphine-induced emesis; experiment: Suppressing effects on apomorphine-induced emesis in beagle dogs; format: in vivo, beagle dogs (male); conditions: apomorphine s.c., observed for sixty minutes
Description: Suppressing effects of the test compounds on apomorphine-induced emesis in beagle dogs
Male beagle dogs weighing about 8 kg were fasted overnight. The test compounds (suspended or dissolved in 0.5% CMC) were administered orally and the dogs fed fortyfive minutes later.

Compound	pEC50 [1]	LD50 [2] [mg/kg]	other results
COc1cc(N)c(Cl)cc1C(=O)NCc1ccc(OCCN2CCCCC2)cc1 [Compound 35]	6.31	61.7	–
CCOc1ccc(C(=O)NCc2ccc(OCCN(C)C)cc2)cc1 [Compound 25]	6.17	87.1	–
CN(C)CCOc1ccc(CNC(=O)c2cccc([N+](=O)[O-])c2)cc1 [Compound 51]	6.21	85.9	–
Cc1cccc(C(=O)NCc2ccc(OCCN(C)C)cc2)c1 [Compound 47]	5.52	68.5	–
CN(C)CCOc1ccc(CNC(=O)c2ccccc2)cc1 [Compound 20]	6.30	–	–
COc1ccc(S(N)(=O)=O)cc1C(=O)NCc1ccc(OCCN(C)C)cc1 [Compound 6, N-[4-[2-(Dimethylamino)ethoxy]benzyl]-2-methoxy-5-sulfamoylbenzamide]	6.40	39.2	–
COc1ccc(C(=O)NCc2ccc(OCCN3CCCCC3)cc2)cc1OC [Compound 19]	6.38	70.8	–
CN(C)CCOc1ccc(CNC(=O)c2ccc(S(N)(=O)=O)cc2)cc1 [Compound 8, N-[4-[2-(Dimethylamino)ethoxy]benzyl]-4-sulfamoylbenzamide]	5.80	85.1	–
COc1cc(N)c(Cl)cc1C(=O)NCc1ccc(OCCN(C)C)cc1 [Compound 5, 4-Amino-5-chloro-N-[4-[2-(dimethylamino)ethoxy]benzyl]-2-methoxybenzamide]	6.74	94	–
CCOc1ccc(C(=O)NCc2ccc(OCCN(C)C)cc2)cc1OC [Compound 31, N-[4-[2-(dimethylamino)ethoxy]benzyl]-4-ethoxy-3-methoxybenzamide]	6.38	105	Improvement (%) [3]: 58.5%; Gastrointestinal transit (% ± S.E.) [3]: 45.2 ± 3.0%
COc1cccc(C(=O)NCc2ccc(OCCN(C)C)cc2)c1 [Compound 23]	6.52	74.1	–
COc1ccc(C(=O)NCc2ccc(OCCN3CCCC3)cc2)cc1OC [Compound 18, 3,4-Dimethoxy-N-[4-[2-(1-pyrrolidinyl)ethoxy]benzyl]benzamide]	–	–	Improvement (%) [3]: 71.7%; Gastrointestinal transit (% ± S.E.) [3]: 43.0 ± 6.5%
CN(C)CCOc1ccc(CNC(=O)c2ccc(C#N)cc2)cc1 [Compound 53]	6.34	77.6	–
Cc1ccc(C(=O)NCc2ccc(OCCN(C)C)cc2)cc1 [Compound 48]	6.29	83.2	–
COc1cc(N)c(Cl)cc1C(=O)NCc1ccc(OCCN2CCCC2)cc1 [Compound 34, 4-amino-5-chloro-2-methoxy-N-[4-[2-(1-pyrrolidinyl)ethoxy]benzyl] benzamide]	6.92	44.7	Improvement (%) [3]: 63.4%; Gastrointestinal transit (% ± S.E.) [3]: 46.6 ± 3.4%
COc1ccc(C(=O)NCc2ccc(OCCN(C)C)cc2)cc1OC.Cl [Compound 2, N-[4-[2-(Dimethylamino)ethoxy]benzyl]-3,4-dimethoxybenzamide hydrochloride]	6.22	191	times stronger contractile effect than metoclopramide.HCl ([1]; isolated guinea pig ileum, compared with metoclopramide.HCl): about 10 times; times stronger contractile effect than trimethobenzamide.HCl ([1]; isolated guinea pig ileum, compared with trimethobenzamide.HCl): about 2.5 times; Improvement (%) [3]: 56.5%; Gastrointestinal transit (% ± S.E.) [3]: 43.9 ± 2.8%; antiemetic effect ([4]; 30 mg/kg p.o.): slight antiemetic effect
COc1ccc(C(=O)NCc2ccc(OCCN(C)C)cc2)cc1 [Compound 24]	6.21	–	–
CCOc1ccc(C(=O)NCc2ccc(OCCN(C)C)cc2)cc1OCC [Compound 32]	6.85	112	–
COc1ccc(S(=O)(=O)N(C)C)cc1C(=O)NCc1ccc(OCCN(C)C)cc1 [Compound 7, N-[4-[2-(Dimethylamino)ethoxy]benzyl]-5-dimethylaminosulfonyl 2-methoxybenzamide]	6.52	–	–
COc1cc(OC)cc(C(=O)NCc2ccc(OCCN(C)C)cc2)c1 [Compound 14]	6.16	–	–
NCCc1ccc(O)c(O)c1 [Dopamine, dopamine]	–	–	Gastrointestinal transit (% ± S.E.), dopamine alone ([3]; dopamine alone 2 mg/kg i.p., no test compound (model control group)): 25.0 ± 3.4% and 35.9 ± 2.1% and 32.9 ± 3.1% and 32.1 ± 2.0% and 31.7 ± 3.2%
O=C(NCc1ccc(OCCN2CCCC2)cc1)c1ccc2c(c1)OCO2 [Compound 3, 3,4-Methylenedioxy-N-[4-[2-(1-pyrrolidinyl)ethoxy]benzyl]benzamide]	6.34	62.6	Improvement (%) [3]: 56.9%; Gastrointestinal transit (% ± S.E.) [3]: 44.0 ± 4.7%

Second part, led by results:

pEC50 [1]	Compound	LD50 [2] [mg/kg]	other results
6.41	Cc1cc(C(=O)NCc2ccc(OCCN(C)C)cc2)ccc1[N+](=O)[O-] [Compound 62]	–	–
6.38	O=C(NCc1ccc(OCCN2CCCC2)cc1)c1cccc([N+](=O)[O-])c1 [Compound 58]	–	–
6.74	COc1ccc(S(N)(=O)=O)cc1C(=O)NCc1ccc(OCCN2CCCC2)cc1 [Compound 37]	–	–
6.46	COc1ccc(S(N)(=O)=O)cc1C(=O)NCc1ccc(OCCN2CCCCC2)cc1 [Compound 38]	–	–
6.47	CNS(=O)(=O)c1ccc(OC)c(C(=O)NCc2ccc(OCCN(C)C)cc2)c1 [Compound 36]	–	–
5.20	CCN(CC)CCNC(=O)c1cc(Cl)c(N)cc1OC [Metoclopramide HCl, 4-Amino-5-chloro-N-[(2-diethylamino)ethyl]-2-methoxybenzamide]	–	improvement of gastrointestinal transit inhibited by dopamine (in words) [3]: did not so only to a much lesser extent; Improvement (%) [3]: 27.1%; Gastrointestinal transit (% ± S.E.) [3]: 37.2 ± 3.2%; antiemetic effect ([4]; 1 mg/kg p.o.): significant antiemetic effect
6.35	CN(C)CCOc1ccc(CNC(=O)c2ccc([N+](=O)[O-])cc2)cc1 [Compound 52]	–	–
6.49	Cc1ccc(C(=O)NCc2ccc(OCCN3CCCC3)cc2)cc1 [Compound 56]	–	–
5.82	COc1cc(C(=O)NCc2ccc(OCCN(C)C)cc2)cc(OC)c1OC [Trimethobenzamide HCl, N-[4-[2-(dimethylamino)ethoxy]benzyl]-3,4,5-trimethoxybenzamide]	–	improvement of gastrointestinal transit inhibited by dopamine (in words) [3]: did not so only to a much lesser extent; Improvement (%) [3]: 32.4%; Gastrointestinal transit (% ± S.E.) [3]: 38.2 ± 3.8%; antiemetic effect ([4]; 30 mg/kg p.o.): significant antiemetic effect
> 7.00	CNS(=O)(=O)c1ccc(OC)c(C(=O)NCc2ccc(OCCN3CCCC3)cc2)c1 [Compound 43]	–	–
5.89	CN(C)CCOc1ccc(CNC(=O)c2ccc(N(C)C)cc2)cc1 [Compound 55]	–	–
5.34	CN(C)CCOc1ccc(CNC(=O)c2cccc(Cl)c2)cc1 [Compound 45]	–	–
6.21	CN(C)CCOc1ccc(CNC(=O)c2ccc(Cl)cc2Cl)cc1 [Compound 59]	–	–
6.89	COc1cc(N)c(S(N)(=O)=O)cc1C(=O)NCc1ccc(OCCN(C)C)cc1 [Compound 41]	–	–
6.41	CN(C)CCOc1ccc(CNC(=O)c2ccc(Cl)c(S(=O)(=O)N(C)C)c2)cc1 [Compound 39]	–	–
6.30	Cc1cc(C(=O)NCc2ccc(OCCN3CCCC3)cc2)ccc1[N+](=O)[O-] [Compound 63]	–	–
6.22	CN(C)S(=O)(=O)c1cc(C(=O)NCc2ccc(OCCN3CCCC3)cc2)ccc1Cl [Compound 40]	–	–
6.03	N#Cc1ccc(C(=O)NCc2ccc(OCCN3CCCC3)cc2)cc1 [Compound 57]	–	–
